According to PubChem BioAssay AID2060606 (Molecular Pharmacology Branch, DTP, NCI, 2025):

Tested on: 922993-354-T-J3-PDC complex spheroids, viability, % test/control
Assay: Anticancer human tumor 922993-354-T-J3-PDC patient-derived endometrial carcinoma cell line growth inhibition [CLK]
Conditions: for IC50: curve of first compound; for viability, T/C: stronger effect = lower value
In short: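 Patient-derived tumor cells grown as complex spheroids with HUVEC endothelial cells and mesenchymal stem cells, treated with drug combinations. Concentrations descend in half-log steps from near clinical Cmax, or from 10 microM if Cmax unknown.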

[1] = second compound 0.0316 µM, first compound 0.0316 µM
[2] = second compound 0.0316 µM, first compound 0.1 µM
[3] = second compound 0.1 µM, first compound 0.0316 µM
[4] = second compound 0.1 µM, first compound 0.1 µM
[5] = second compound 0.316 µM, first compound 0.0316 µM
[6] = second compound 0.316 µM, first compound 0.1 µM
[7] = second compound 1 µM, first compound 0.0316 µM
[8] = second compound 1 µM, first compound 0.1 µM
[9] = second compound 3.16 µM, first compound 0.0316 µM
[10] = second compound 3.16 µM, first compound 0.1 µM
[11] = second compound 10 µM, first compound 0.0316 µM
[12] = second compound 10 µM, first compound 0.1 µM
[13] = second compound 0.0316 µM, first compound 0.316 µM
[14] = second compound 0.0316 µM, first compound 1 µM
[15] = second compound 0.0316 µM, first compound 3.16 µM
[16] = second compound 0.0316 µM, first compound 10 µM
[17] = second compound 0.1 µM, first compound 0.316 µM
[18] = second compound 0.1 µM, first compound 1 µM
[19] = second compound 0.1 µM, first compound 3.16 µM
[20] = second compound 0.1 µM, first compound 10 µM
[21] = second compound 0.316 µM, first compound 0.316 µM
[22] = second compound 0.316 µM, first compound 1 µM
[23] = second compound 0.316 µM, first compound 3.16 µM
[24] = second compound 0.316 µM, first compound 10 µM
[25] = second compound 1 µM, first compound 0.316 µM
[26] = second compound 1 µM, first compound 1 µM
[27] = second compound 1 µM, first compound 3.16 µM
[28] = second compound 1 µM, first compound 10 µM
[29] = second compound 3.16 µM, first compound 0.316 µM
[30] = second compound 3.16 µM, first compound 1 µM
[31] = second compound 3.16 µM, first compound 3.16 µM
[32] = second compound 3.16 µM, first compound 10 µM
[33] = second compound 10 µM, first compound 0.316 µM
[34] = second compound 10 µM, first compound 1 µM
[35] = second compound 10 µM, first compound 3.16 µM
[36] = second compound 10 µM, first compound 10 µM
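Further: spheroids exposed to the agents for 7 days before readout.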

With Cn1ncnc1[C@H]1c2n[nH]c(=O)c3cc(F)cc(c23)N[C@@H]1c1ccc(F)cc1 + CN1CCN(c2cc(C(=O)Nc3cc4cc(-c5cnn(C)c5)ccc4cn3)ccn2)CC1 the IC50 (second compound 0.0316 µM) was > 100 nM, the IC50 (second compound 0.1 µM) was > 100 nM and the IC50 (second compound 0.316 µM) was < 0.316 nM. For the same compound, the IC50 (second compound 1 µM) was < 0.316 nM, the IC50 (second compound 3.16 µM) was < 0.316 nM and the IC50 (second compound 10 µM) was < 0.316 nM. It also gave a viability, T/C (second compound 0.0316 µM, first compound 0.000316 µM) of 126%, a viability, T/C (second compound 0.0316 µM, first compound 0.001 µM) of 121% and a viability, T/C (second compound 0.0316 µM, first compound 0.00316 µM) of 104%. For the same compound, the viability, T/C (second compound 0.0316 µM, first compound 0.01 µM) was 119%, the viability, T/C [1] was 119% and the viability, T/C [2] was 75.3%. The viability, T/C (second compound 0.1 µM, first compound 0.000316 µM) was 110%, the viability, T/C (second compound 0.1 µM, first compound 0.001 µM) was 101% and the viability, T/C (second compound 0.1 µM, first compound 0.00316 µM) was 102%. It also gave a viability, T/C (second compound 0.1 µM, first compound 0.01 µM) of 103%, a viability, T/C [3] of 116% and a viability, T/C [4] of 75.3%. It also gave a viability, T/C (second compound 0.316 µM, first compound 0.000316 µM) of 43.1%, a viability, T/C (second compound 0.316 µM, first compound 0.001 µM) of 35.2% and a viability, T/C (second compound 0.316 µM, first compound 0.00316 µM) of 41.5%. It also gave a viability, T/C (second compound 0.316 µM, first compound 0.01 µM) of 32.7%, a viability, T/C [5] of 35.6% and a viability, T/C [6] of 20.4%. The viability, T/C (second compound 1 µM, first compound 0.000316 µM) was 0.13%, the viability, T/C (second compound 1 µM, first compound 0.001 µM) was 0.83% and the viability, T/C (second compound 1 µM, first compound 0.00316 µM) was 0.12%. The viability, T/C (second compound 1 µM, first compound 0.01 µM) was 0.32%, the viability, T/C [7] was 0.11% and the viability, T/C [8] was 0.89%. The viability, T/C (second compound 3.16 µM, first compound 0.000316 µM) was 0.12%, the viability, T/C (second compound 3.16 µM, first compound 0.001 µM) was 1.22% and the viability, T/C (second compound 3.16 µM, first compound 0.00316 µM) was 0.35%. The viability, T/C (second compound 3.16 µM, first compound 0.01 µM) was 0.07%, the viability, T/C [9] was 0.95% and the viability, T/C [10] was 1.3%. It also gave a viability, T/C (second compound 10 µM, first compound 0.000316 µM) of 0.13%, a viability, T/C (second compound 10 µM, first compound 0.001 µM) of 0.16% and a viability, T/C (second compound 10 µM, first compound 0.00316 µM) of 0.88%. It also gave a viability, T/C (second compound 10 µM, first compound 0.01 µM) of 0.13%, a viability, T/C [11] of 1.94% and a viability, T/C [12] of 2.55%.
Nc1ccn(C2OC(CO)C(O)C2(F)F)c(=O)n1 (stereo unspecified) + CN1CCN(c2cc(C(=O)Nc3cc4cc(-c5cnn(C)c5)ccc4cn3)ccn2)CC1 was tested, and the IC50 (second compound 0.0316 µM) was < 31.6 nM, the IC50 (second compound 0.1 µM) was < 31.6 nM and the IC50 (second compound 0.316 µM) was < 31.6 nM. The IC50 (second compound 1 µM) was < 31.6 nM, the IC50 (second compound 3.16 µM) was < 31.6 nM and the IC50 (second compound 10 µM) was < 31.6 nM. The viability, T/C [1] was 20.2%, the viability, T/C [2] was 13.4% and the viability, T/C [13] was 16.6%. It also gave a viability, T/C [14] of 15.9%, a viability, T/C [15] of 16.6% and a viability, T/C [16] of 17.2%. It also gave a viability, T/C [3] of 23.5%, a viability, T/C [4] of 16.3% and a viability, T/C [17] of 15.7%. It also gave a viability, T/C [18] of 17.2%, a viability, T/C [19] of 16.9% and a viability, T/C [20] of 18.4%. For the same compound, the viability, T/C [5] was 14%, the viability, T/C [6] was 11.3% and the viability, T/C [21] was 10.3%. For the same compound, the viability, T/C [22] was 11.6%, the viability, T/C [23] was 12.5% and the viability, T/C [24] was 11.5%. The viability, T/C [7] was 0.1%, the viability, T/C [8] was 0.12% and the viability, T/C [25] was 0.13%. It also gave a viability, T/C [26] of 0.06%, a viability, T/C [27] of 1.89% and a viability, T/C [28] of 0.07%. It also gave a viability, T/C [9] of 0.11%, a viability, T/C [10] of 2.53% and a viability, T/C [29] of 1.37%. For the same compound, the viability, T/C [30] was 0.13%, the viability, T/C [31] was 0.85% and the viability, T/C [32] was 2.45%. For the same compound, the viability, T/C [11] was 0.16%, the viability, T/C [12] was 1.71% and the viability, T/C [33] was 1.82%. For the same compound, the viability, T/C [34] was 0.17%, the viability, T/C [35] was 0.67% and the viability, T/C [36] was 1.33%.
In the case of O=C(c1cc(Cc2n[nH]c(=O)c3ccccc23)ccc1F)N1CCN(C(=O)C2CC2)CC1 + CN1CCN(c2cc(C(=O)Nc3cc4cc(-c5cnn(C)c5)ccc4cn3)ccn2)CC1, the IC50 (second compound 0.0316 µM) is reported as > 10000 nM, the IC50 (second compound 0.1 µM) is reported as > 10000 nM and the IC50 (second compound 0.316 µM) is reported as < 31.6 nM. For the same compound, the IC50 (second compound 1 µM) was < 31.6 nM, the IC50 (second compound 3.16 µM) was < 31.6 nM and the IC50 (second compound 10 µM) was < 31.6 nM. It also gave a viability, T/C [1] of 118%, a viability, T/C [2] of 106% and a viability, T/C [13] of 108%. It also gave a viability, T/C [14] of 117%, a viability, T/C [15] of 93.5% and a viability, T/C [16] of 97%. It also gave a viability, T/C [3] of 92.1%, a viability, T/C [4] of 98.6% and a viability, T/C [17] of 95.8%. It also gave a viability, T/C [18] of 87%, a viability, T/C [19] of 84.6% and a viability, T/C [20] of 84.8%. The viability, T/C [5] was 44.1%, the viability, T/C [6] was 32% and the viability, T/C [21] was 24.3%. It also gave a viability, T/C [22] of 33%, a viability, T/C [23] of 39.1% and a viability, T/C [24] of 32.2%. The viability, T/C [7] was 0.1%, the viability, T/C [8] was 0.12% and the viability, T/C [25] was 1.56%. The viability, T/C [26] was 0.08%, the viability, T/C [27] was 1.32% and the viability, T/C [28] was 1.97%. For the same compound, the viability, T/C [9] was 0.08%, the viability, T/C [10] was 0.63% and the viability, T/C [29] was 0.57%. The viability, T/C [30] was 0.11%, the viability, T/C [31] was 1.25% and the viability, T/C [32] was 1.13%. The viability, T/C [11] was 0.12%, the viability, T/C [12] was 1.28% and the viability, T/C [33] was 2.09%. It also gave a viability, T/C [34] of 1.28%, a viability, T/C [35] of 0.42% and a viability, T/C [36] of 2.31%.
